According to the supplement of paper PMC10307832:

Columns and labels:
Assay in all cases: relative viability (nuclei count vs DMSO), 5 days (fraction); higher = more cells survive
NCI-H1623 = test system: NCI-H1623
Outline: (§1)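 Relative viability equals treated-well nuclei counts divided by vehicle-well nuclei counts. Counts came from 4× images of lung cancer cell lines grown in 1536-well plates for 5 days after pin-tool dosing on the day after seeding. Dosing used one drug alone or a fixed anchor-drug dose plus five library-drug doses (not always all listed) in √10 steps, and values are medians of duplicate plates.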

NCI-H2023 = test system: NCI-H2023
Outline: as §1

NCI-H520 = test system: NCI-H520
Outline: as §1

NCI-H2170 = test system: NCI-H2170
Outline: as §1

NCI-H727 = test system: NCI-H727
Outline: as §1

IA-LM = test system: IA-LM
Outline: as §1

NCI-H1299 = test system: NCI-H1299
Outline: as §1

Calu-6 = test system: Calu-6
Outline: as §1

NCI-H1703 = test system: NCI-H1703
Outline: as §1

A549 = test system: A549
Outline: as §1

EBC-1 = test system: EBC-1
Outline: as §1

NCI-H1648 = test system: NCI-H1648
Outline: as §1

`CCNC(=O)c1noc(-c2cc(C(C)C)c(O)cc2O)c1-c1ccc(CN2CCOCC2)cc1` [Luminespib] + Cc1nc(Nc2ncc(C(=O)Nc3c(C)cccc3Cl)s2)cc(N2CCN(CCO)CC2)n1 [Dasatinib] (partner 0.075 µM) gave a relative viability (NCI-H1623; first compound 0.002 µM) of 0.525, a relative viability (NCI-H1623; first compound 0.006325 µM) of 0.384 and a relative viability (NCI-H1623; first compound 0.02 µM) of 0.416. The relative viability (NCI-H1623; first compound 0.06325 µM) was 0.506, the relative viability (NCI-H1623; first compound 0.2 µM) was 0.406 and the relative viability (NCI-H2023; first compound 0.002 µM) was 0.589. It also gave a relative viability (NCI-H2023; first compound 0.006325 µM) of 0.525, a relative viability (NCI-H2023; first compound 0.02 µM) of 0.198 and a relative viability (NCI-H2023; first compound 0.06325 µM) of 0.0548. For the same molecule, the relative viability (NCI-H2023; first compound 0.2 µM) was 0.0529, the relative viability (NCI-H520; first compound 0.002 µM) was 0.17 and the relative viability (NCI-H520; first compound 0.006325 µM) was 0.209. The relative viability (NCI-H520; first compound 0.02 µM) was 0.198, the relative viability (NCI-H520; first compound 0.06325 µM) was 0.151 and the relative viability (NCI-H520; first compound 0.2 µM) was 0.173. For the same molecule, the relative viability (NCI-H2170; first compound 0.002 µM) was 0.503, the relative viability (NCI-H2170; first compound 0.006325 µM) was 0.578 and the relative viability (NCI-H2170; first compound 0.02 µM) was 0.308. For the same molecule, the relative viability (NCI-H2170; first compound 0.06325 µM) was 0.163, the relative viability (NCI-H2170; first compound 0.2 µM) was 0.106 and the relative viability (NCI-H727; first compound 0.002 µM) was 0.358. It also gave a relative viability (NCI-H727; first compound 0.006325 µM) of 0.331, a relative viability (NCI-H727; first compound 0.02 µM) of 0.257 and a relative viability (NCI-H727; first compound 0.06325 µM) of 0.278. It also gave a relative viability (NCI-H727; first compound 0.2 µM) of 0.304.
In the case of `CN1CCN(CCOc2cc(OC3CCOCC3)c3c(Nc4c(Cl)ccc5c4OCO5)ncnc3c2)CC1` [Saracatinib] + CCNC(=O)c1noc(-c2cc(C(C)C)c(O)cc2O)c1-c1ccc(CN2CCOCC2)cc1 [Luminespib] (partner 0.01 µM), the relative viability (NCI-H1623; first compound 0.02 µM) is reported as 0.527, the relative viability (NCI-H1623; first compound 0.2 µM) is reported as 0.383 and the relative viability (NCI-H1623; first compound 0.6325 µM) is reported as 0.522. For the same molecule, the relative viability (NCI-H1623; first compound 2 µM) was 0.433, the relative viability (NCI-H2023; first compound 0.02 µM) was 0.773 and the relative viability (NCI-H2023; first compound 0.6325 µM) was 0.735. The relative viability (NCI-H2023; first compound 2 µM) was 0.471, the relative viability (NCI-H520; first compound 0.02 µM) was 0.213 and the relative viability (NCI-H520; first compound 0.6325 µM) was 0.221. It also gave a relative viability (NCI-H520; first compound 2 µM) of 0.204, a relative viability (NCI-H2170; first compound 0.02 µM) of 0.658 and a relative viability (NCI-H2170; first compound 0.2 µM) of 0.596. For the same molecule, the relative viability (NCI-H2170; first compound 0.6325 µM) was 0.477, the relative viability (NCI-H2170; first compound 2 µM) was 0.337 and the relative viability (NCI-H727; first compound 0.02 µM) was 0.242. For the same molecule, the relative viability (NCI-H727; first compound 0.2 µM) was 0.316, the relative viability (NCI-H727; first compound 0.6325 µM) was 0.266 and the relative viability (NCI-H727; first compound 2 µM) was 0.239.
`Cc1cn(-c2cc(NC(=O)c3ccc(C)c(Nc4nccc(-c5cccnc5)n4)c3)cc(C(F)(F)F)c2)cn1` [Nilotinib] + O=C(c1cc(Cc2n[nH]c(=O)c3ccccc23)ccc1F)N1CCN(C(=O)C2CC2)CC1 [Olaparib] (partner 8 µM) showed a relative viability (IA-LM; first compound 0.001 µM) of 0.659, a relative viability (IA-LM; first compound 0.003162 µM) of 0.864 and a relative viability (IA-LM; first compound 0.01 µM) of 0.758. It also gave a relative viability (IA-LM; first compound 0.03162 µM) of 0.664, a relative viability (IA-LM; first compound 0.1 µM) of 0.777 and a relative viability (NCI-H1299; first compound 0.001 µM) of 0.886. The relative viability (NCI-H1299; first compound 0.003162 µM) was 1.01, the relative viability (NCI-H1299; first compound 0.01 µM) was 0.985 and the relative viability (NCI-H1299; first compound 0.03162 µM) was 0.948. The relative viability (NCI-H1299; first compound 0.1 µM) was 0.664, the relative viability (Calu-6; first compound 0.001 µM) was 0.525 and the relative viability (Calu-6; first compound 0.003162 µM) was 0.693. For the same molecule, the relative viability (Calu-6; first compound 0.01 µM) was 0.583, the relative viability (Calu-6; first compound 0.03162 µM) was 0.409 and the relative viability (Calu-6; first compound 0.1 µM) was 0.494. The relative viability (NCI-H1703; first compound 0.001 µM) was 0.302, the relative viability (NCI-H1703; first compound 0.003162 µM) was 0.201 and the relative viability (NCI-H1703; first compound 0.01 µM) was 0.234. It also gave a relative viability (NCI-H1703; first compound 0.03162 µM) of 0.174, a relative viability (NCI-H1703; first compound 0.1 µM) of 0.212 and a relative viability (A549; first compound 0.001 µM) of 0.249. The relative viability (A549; first compound 0.003162 µM) was 0.377, the relative viability (A549; first compound 0.01 µM) was 0.334 and the relative viability (A549; first compound 0.03162 µM) was 0.241. It also gave a relative viability (A549; first compound 0.1 µM) of 0.117, a relative viability (NCI-H2023; first compound 0.001 µM) of 0.429 and a relative viability (NCI-H2023; first compound 0.003162 µM) of 0.486. It also gave a relative viability (NCI-H2023; first compound 0.01 µM) of 0.599, a relative viability (NCI-H2023; first compound 0.03162 µM) of 0.361 and a relative viability (NCI-H2023; first compound 0.1 µM) of 0.394. For the same molecule, the relative viability (NCI-H520; first compound 0.001 µM) was 0.321, the relative viability (NCI-H520; first compound 0.003162 µM) was 0.293 and the relative viability (NCI-H520; first compound 0.01 µM) was 0.305. The relative viability (NCI-H520; first compound 0.03162 µM) was 0.316, the relative viability (NCI-H520; first compound 0.1 µM) was 0.294 and the relative viability (EBC-1; first compound 0.001 µM) was 0.67. It also gave a relative viability (EBC-1; first compound 0.003162 µM) of 0.804, a relative viability (EBC-1; first compound 0.01 µM) of 0.755 and a relative viability (EBC-1; first compound 0.03162 µM) of 0.661. It also gave a relative viability (EBC-1; first compound 0.1 µM) of 0.631, a relative viability (NCI-H2170; first compound 0.001 µM) of 0.597 and a relative viability (NCI-H2170; first compound 0.003162 µM) of 0.662. For the same molecule, the relative viability (NCI-H2170; first compound 0.01 µM) was 0.647, the relative viability (NCI-H2170; first compound 0.03162 µM) was 0.574 and the relative viability (NCI-H2170; first compound 0.1 µM) was 0.614. For the same molecule, the relative viability (NCI-H727; first compound 0.001 µM) was 0.574, the relative viability (NCI-H727; first compound 0.003162 µM) was 0.847 and the relative viability (NCI-H727; first compound 0.01 µM) was 0.658. For the same molecule, the relative viability (NCI-H727; first compound 0.03162 µM) was 0.732, the relative viability (NCI-H727; first compound 0.1 µM) was 0.732 and the relative viability (NCI-H1648; first compound 0.001 µM) was 0.577. For the same molecule, the relative viability (NCI-H1648; first compound 0.003162 µM) was 0.909, the relative viability (NCI-H1648; first compound 0.01 µM) was 0.903 and the relative viability (NCI-H1648; first compound 0.03162 µM) was 0.621. It also gave a relative viability (NCI-H1648; first compound 0.1 µM) of 0.893.
